B1: Subtilisin2: subtilisin with amino acid sequence SEQ ID NO: 1, reference subtilisin not covered by the invention (protein, listed as Bacillus lentus)
chain: AQSVPWGISRVQAPAAHNRGLTGSGVKVAVLDTGISTHPDLNIRGGASFVPGEPSTQDGNGHGTHVAGTIAALNNSIGVLGVAPSAELYAVKVLGASGSGSVSSIAQGLEWAGNNGMHVANLSLGSPSPSATLEQAVNSATSRGVLVVAASGNSGAGSISYPARYANAMAVGATDQNNNRASFSQYGAGLDIVAPGVNVQSTYPGSTYASLNGTSMATPHVAGAAALVKQKNPSWSNVQIRNHLKNTATSLGSTNLYGSGLVNAEAATR

What was measured:
Type in all cases: physicochemical
Subtilisin1 [1] = target: T1, Subtilisin1 (Lederbergia lenta, UniProt P29600, M216S); assay: Residual activity of Subtilisin1 after storage in peroxide model detergents with or without subtilisin stabilizers (N,N-dimethylcasein/TNBS)
T1 sequence (P29600 whole entry M216S): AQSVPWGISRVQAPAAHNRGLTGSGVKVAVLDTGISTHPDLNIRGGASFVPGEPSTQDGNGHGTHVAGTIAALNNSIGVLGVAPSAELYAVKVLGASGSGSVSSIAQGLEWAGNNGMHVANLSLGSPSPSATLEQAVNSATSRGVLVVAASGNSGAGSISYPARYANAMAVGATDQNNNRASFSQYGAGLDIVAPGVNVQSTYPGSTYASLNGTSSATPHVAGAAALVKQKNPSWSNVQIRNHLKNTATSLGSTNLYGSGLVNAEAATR

Subtilisin1 [2] = target: T1, Subtilisin1; assay: as above; conditions: model detergents with hydrogen peroxide, pH 7 and 9; summary of Example 2
Description: Chemicals used as buffers and substrates were commercial products of at least reagent grade. Subtilisin1 has the amino acid sequence as shown in SEQ ID NO: 2, which is a subtilisin having a M216 substitution according to the invention. Subtilisin2 has the amino acid sequence as shown in SEQ ID NO: 1, which is a reference subtilisin not covered by the invention. The stock solution of each subtilisin contains 4.4% w/w of active enzyme protein. Stabilizer1: Cbz-Gly-Ala-Tyr-H (C-terminal aldehyde), wherein Cbz is benzyloxycarbonyl; which is a subtilisin stabilizer according to the invention. When used in the examples below, Stabilizer1 was added to the subtilisin stock solution at a concentration of 0.28% w/w. Stabilizer2: Cbz-Gly-Ala-NHCH(CH2C6H4pOH)CH(OH)(OSO3)Na (hydrosulfite adduct of a C-terminal aldehyde) wherein Cbz is benzyloxycarbonyl; which is a subtilisin stabilizer according to the invention. When used in the examples below, Stabilizer2 was added to the subtilisin stock solution at a concentration of 0.35% w/w. Stabilizer3: MeOCO-Val-Ala-Leu-H (C-terminal aldehyde). When used in the examples below, Stabilizer3 was added to the subtilisin stock solution at a concentration of 0.28% w/w. Stabilizer4: 4-formyl-phenyl-boronic acid (4-FPBA); which is a reference protease stabilizer not covered by the invention. When used in the examples below, Stabilizer4 was added to the subtilisin stock solution at a concentration of 3.4% w/w.
(§1) The compositions were prepared as shown in the examples and samples stored in closed vials for storage. Residual activity was measured by comparing activity in a stored sample at the time of taken out of incubation without freezing and comparing activity to a freshly prepared sample without peroxide and dividing activity in the stored sample with activity in the fresh sample.
(§2) Activity analysis is performed by analysing protease activity by hydrolysis of N,N-dimethylcasein to produce a carboxylic acid and a primary amine compounds. The primary amines that are formed react, under alkaline conditions, with tri-nitrobenzenesulfonic acid (TNBS) to form a colored complex. The amount of colored complex that forms over the fixed reaction period at a constant temperature (530 seconds at 40° C.; complex absorbance is measured at 405 nm) is related to the amount of active protease present in the sample. The amount of colored product complex produced is compared to a standard curve based on known protease concentrations to calculate the amount of active protease in the detergent sample. The amount of protease activity at a specific time point is compared to the t=0 activity level to calculate the % active protease remaining.
This study examined Subtilisin1 stability in the presence of hydrogen peroxide, with and without subtilisin stabilizers (Stabilizer4 and Stabilizer2) in two different model detergents at pH 7 and 9.

[3] = Stability of Subtilisin1 and Subtilisin2 in the liquid peroxide composition of Table 1 (residual protease activity, N,N-dimethylcasein/TNBS); conditions: liquid peroxide composition in Table 1 (0.8% H2O2, pH 7.0), 4 weeks
Protocol: as §1, §2

[4] = Residual hydrogen peroxide after storage, permanganate titration; conditions: liquid peroxide composition in Table 1, 37° C., 4 weeks
Protocol: Residual hydrogen peroxide (H2O2) was measured by permanganate titration (reduction of potassium permanganate by hydrogen peroxide in sulfuric acid).

[5] = Subtilisin1 in “Mix Laundry” (Table 19, pH 7.5) no H2O2, no sodium salicylate, no polyDADMAC
[6] = Subtilisin1 in “Mix Laundry” (Table 19, pH 7.5) with 1% H2O2, with sodium salicylate, with polyDADMAC
[7] = Subtilisin1 in “NI pretreat” (Table 19, pH 7.0) with 1% H2O2, with sodium salicylate, with polyDADMAC
[8] = Subtilisin1 in “NI pretreat” (Table 19, pH 7.0) without H2O2, no sodium salicylate, no polyDADMAC

Row | Molecule | Residual activity after storage for 2 weeks at 30° C. (Subtilisin1 [1]; [5]) [%] | Residual activity after storage for 2 weeks at 30° C. (Subtilisin1 [1]; [6]) [%] | Residual activity after storage for 2 weeks at 37° C. (Subtilisin1 [1]; [7]) [%] | Residual activity after storage for 2 weeks at 37° C. (Subtilisin1 [1]; [8]) [%] | stabilization of Subtilisin1, compared to Stabilizer4 (Subtilisin1 [2]) | % Subtilisin residual activity after 4 weeks ([3]; 22° C.) [%] | % Subtilisin residual activity after 4 weeks ([3]; 30° C.) [%] | % Subtilisin residual activity after 4 weeks ([3]; 37° C.) [%] | Residual H2O2 after 4 weeks [4] [%]
1 | O=BOB(O)OB(O)OB=O [borax, reference compound] | 81 | 43 | 22 | 117 | – | – | – | – | –
2 | O=Cc1ccc(B(O)O)cc1 [Stabilizer4, 4-formyl-phenyl-boronic acid, reference compound] | 86 | 20 | 11 | 129 | – | – | – | – | –
3 | MeOCO-Val-Ala-Leu-H [Stabilizer3] | 83 | 60 | 64 | 95 | – | – | – | – | –
4 | Cbz-Gly-Ala-NHCH(CH2C6H4pOH)CH(OH)(OSO3)Na [Stabilizer2] | 83 | 52 | 61 | 98 | much more effective stabilization | – | – | – | –
5 | B1 | – | – | – | – | – | 35 | 33 | 15 | 95.8
